Experimental data: article PMC10610256, “Development and Preclinical Evaluation of [^68Ga]BMSH as a New Potent Positron Emission Tomography Tracer for Imaging Programmed Death-Ligand 1 Expression” (Pharmaceuticals, 2023)

Tests used:
PD-L1 = target: T1, PD-L1 (Homo sapiens, UniProt Q9NZQ7); assay: Competitive cell-binding experiment against [^68Ga]BMSH; details: A549-hPDL1 cells, 60 min
T1 construct: expressed in transfected cells; host or cells: A549 cells stably transduced with hPD-L1 by lentivirus (A549-hPDL1)

[1] = system: A549-hPDL1 and A549 tumors; assay: Micro-PET imaging, A549-hPDL1 versus A549 tumors; type: in vivo, BALB/c nude mice; details: 60 min post-injection
Procedure: For biodistribution and micro-PET imaging studies of [^68Ga]BMSH and [^18F]FDG, male BALB/c nude mice were implanted subcutaneously with 1–5 × 10^6 A549-hPDL1 cells and A549 cells behind right armpit. Mice were imaged or used in biodistribution studies when the tumor xenografts reached 5–10 mm in diameter. Dynamic micro-PET imaging studies were conducted in tumor-bearing nude mice (A549-hPDL1 and A549, n = 3 in each group) using the Madiclab PSA146 PET/CT/FMT instrument (Linyi, China). The images were reconstructed using a three-dimensional ordered-subset expectation maximum (OSEM) algorithm and were converted to the percentage of injected dose per gram of tissue (%ID/g) images. Tumor-bearing mice were intravenously injected with [^68Ga]BMSH (7.4 MBq/mouse) and [^18F]FDG (5.55 MBq/mouse), respectively. For the blocking experiment, the A549-hPDL1 tumor-bearing mice were co-injected with NOTA-BMSH (100 µg/mouse) and [^68Ga]BMSH. For data analysis, the regions of interest (ROIs) were manually drawn over the tumor and major organs on decay-corrected whole-body coronal images using PMOD software (version 4.3, PMOD Technologies Ltd., Zurich, Switzerland).

T1 sequence (Q9NZQ7 19-290): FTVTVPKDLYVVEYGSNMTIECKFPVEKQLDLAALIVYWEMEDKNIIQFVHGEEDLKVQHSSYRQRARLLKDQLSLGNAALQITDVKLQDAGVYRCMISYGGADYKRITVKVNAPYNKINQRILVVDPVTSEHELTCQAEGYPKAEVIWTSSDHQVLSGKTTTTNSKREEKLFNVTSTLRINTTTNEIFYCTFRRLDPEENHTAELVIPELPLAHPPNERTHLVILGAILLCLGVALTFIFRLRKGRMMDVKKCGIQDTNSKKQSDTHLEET

Row | IC50 (PD-L1) [nM] | A549-hPDL1 tumor/A549 tumor uptake ratio [1] | Compound
1 | 449 | – | CC(=O)NC1C(NC(=O)[C@H](CCC(=O)N[C@@H](CCC(=O)O)C(=O)N[C@@H](CC(=O)O)C(=O)NCCOCCOCC(=O)NCCNC(=O)[C@@H](CO)CNc2cc(C)c(OCc3cccc(-c4ccc5c(c4)OCCO5)c3C)cc2OCc2cccc(C#N)c2)NC(=O)COCCOCCNC(=O)CN2CCN(CC(=O)O)CCN(CC(=O)O)CC2)OC(CO)C(O)C1O (some centres unmarked) [NOTA-BMSH]
2 | – | 1.08 | [^18F]FDG
